49 molecules from patent US20240368174A1, “Antiviral Heterocyclic Compounds” (Enanta Pharmaceuticals, Inc., priority 2023, published 2024) can be followed below.

The first experiment concerns HMPV clinical isolate A2 strain TN 94-49. Kind of experiment: HMPV antiviral assay, Method 2 (LLC-MK2 cells with CP-100-356, ATP-Lite). Type of experiment: cell-based. As to conditions: human metapneumovirus, 168 h; hMPV A2 TN/94-49, LLC-MK2 cells with 4 μM CP-100-356, 7 days, ATP-Lite. The essentials:
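EC50 comes from a four-parameter fit of percent cell viability (ATP-Lite, normalized to virus-only and cell-only wells) after 7 days at 37 °C. Infection used HMPV A2 TN 94-49 at MOI 0.16 in LLC-MK2 cells, with 2 μM P-gp inhibitor CP-100-356 and 2 μg/mL TPCK-trypsin final; dose range 200 nM top, 2.5-fold, 10 points, duplicate.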
As a reminder, the EC50 is the midpoint of the concentration-response curve. Read a high EC50 as a less potent agent. In turn, `COc1cc(C(=O)NC[C@](O)(c2cc3c(c(-c4cccc(F)c4Cl)n2)OC[C@]3(C)C(N)=O)C2(F)CC2)cc2cn(C3CC3)nc12` [Example 617] showed a concentration for a half-maximal effect (EC50) of under 200 nM. As to `COc1cc(C(=O)NC[C@](O)(c2cc3c(c(-n4ncc5c(F)cccc54)n2)OC[C@]3(C)C(N)=O)C2CC2)cc2cc(C3CC3)nn12` [Example 626], the concentration for a half-maximal effect (EC50) is under 200 nM. Same read-out and setting: then `COc1cc(C(=O)NC[C@](O)(c2cc3c(c(-c4cccc(F)c4Cl)n2)OC[C@]3(C)C(N)=O)C2CC2)cc2cc(C3CC3)nn12` [Example 632], with under 200 nM; and `COc1cc(C(=O)NC[C@@](O)(c2ccccc2)c2cc3c(c(-n4ncc5c(F)cccc54)n2)OC[C@]3(C)C(N)=O)cc2sc(N)nc12` [Example 633], with over 200 nM.

Consider `COc1cc(C(=O)NC[C@@](O)(c2ccccc2)c2cc3c(c(-n4ncc5c(F)cccc54)n2)OC[C@]3(C)C(N)=O)cn2cc(C3CC3)nc12` [Example 634], for which the EC50 is under 200 nM. `COc1cc(-c2nc([C@@](O)(CNC(=O)c3cc(OC)c4nn(C5CC5)cc4c3)c3ccccc3)cc3c2OC[C@]3(C)C(N)=O)c(F)cn1` [Example 635] had a 50% effective concentration (EC50) of under 200 nM.

In the case of `COc1cc(C(=O)NC[C@@](O)(c2ccccc2)c2cc3c(c(-n4ncc5c(F)cccc54)n2)OC[C@]3(C)C(N)=O)cc2cn(C(F)F)nc12` [Example 636], the EC50 was under 200 nM. Molecule `[2H]C([2H])([2H])c1nc2c(OC)cc(C(=O)NC[C@@](O)(c3ccccc3)c3cc4c(c(-n5ncc6c(F)cccc65)n3)OC[C@]4(C)C(N)=O)cc2s1` [Example 637] came in with an EC50 of under 200 nM.

In turn, `COc1cc(-c2nc([C@@](O)(CNC(=O)c3cc(OC)c4nc(C5CC5)oc4c3)c3ccccc3)cc3c2OC[C@]3(C)C(N)=O)c(F)cn1` [Example 638] showed an EC50 of under 200 nM. Same read-out and setting: then `COc1cc(-c2nc([C@@](O)(CNC(=O)c3cc(OC)n4nc(C5CC5)cc4c3)c3ccccc3)cc3c2OC[C@]3(C)C(N)=O)c(F)cn1` [Example 639], with under 200 nM.

In the case of `COc1cc(-c2nc([C@@](O)(CNC(=O)c3cc(OC)c4nn(C5(F)CC5)cc4c3)c3ccccc3)cc3c2OC[C@]3(C)C(N)=O)c(F)cn1` [Example 640], the 50% effective concentration (EC50) is under 200 nM.

For the molecule `COc1cc(C(=O)NC[C@](O)(c2cc3c(c(-n4ncc5c4CCCC5)n2)OC[C@]3(C)C(N)=O)C2CC2)cc2cn(C(F)F)nc12` [Example 641], the EC50 is over 200 nM. The same measure, in the same setting: the result for `COc1cc(C(=O)NC[C@](O)(c2cc3c(c(-n4ncc5c4CCCC5)n2)OC[C@]3(C)C(N)=O)C2CC2)cc2cn(C3CC3)nc12` [Example 642] reads over 200 nM; that for `COc1cc(C(=O)NC[C@](O)(c2cc3c(c(-n4ncc5c4CCCC5)n2)OC[C@]3(C)C(N)=O)C2CC2)cc2cn(C3(F)CC3)nc12` [Example 643], over 200 nM; that for `COc1cc(C(=O)NC[C@](O)(c2cc3c(c(-n4ncc5c4CCCC5)n2)OC[C@]3(C)C(N)=O)C2CC2)cc2oc(C3CC3)nc12` [Example 644], over 200 nM. Still for that read-out and setting: the result for `COc1nccc(-c2nc([C@@](O)(CNC(=O)c3cc(OC)c4nc(C5CC5)oc4c3)C3(F)CC3)cc3c2OC[C@]3(C)C(N)=O)c1Cl` [Example 645] reads under 200 nM; that for `COc1cc(C(=O)NC[C@@](O)(c2ccc(F)cc2)c2cc3c(c(-c4ccnc(C)c4Cl)n2)OC[C@]3(C)C(N)=O)cc2cn(C3CC3)nc12` [Example 646], under 200 nM; that for `COc1cc(C(=O)NC[C@@](O)(c2ccc(F)cc2)c2cc3c(c(-c4ccnc(C)c4Cl)n2)OC[C@]3(C)C(N)=O)cc2cn(C3(F)CC3)nc12` [Example 647], under 200 nM. The same measure, in the same setting: the result for `COc1cc(C(=O)NC[C@@](O)(c2ccc(F)cc2)c2cc3c(c(-c4ccnc(C)c4Cl)n2)OC[C@]3(C)C(N)=O)cc2cn(C(F)F)nc12` [Example 648] reads over 200 nM; that for `COc1cc(C(=O)NC[C@@](O)(c2ccc(F)cc2)c2cc3c(c(-c4ccnc(C)c4Cl)n2)OC[C@]3(C)C(N)=O)cc2oc(C3CC3)nc12` [Example 649], under 200 nM. For the molecule `C[C@]1(C(N)=O)COc2c1cc([C@@](O)(CNC(=O)c1cc(OC3CC3)c3nn(C4CC4)cc3c1)C1CC1)nc2-n1ncc2c(F)cccc21` [Example 650], the EC50 was under 200 nM. The same measure, in the same setting: then `C[C@]1(C(N)=O)COc2c1cc([C@@](O)(CNC(=O)c1cc(OC3CC3)c3nn(C4(F)CC4)cc3c1)C1CC1)nc2-n1ncc2c(F)cccc21` [Example 651], with under 200 nM; and `C[C@]1(C(N)=O)COc2c1cc([C@@](O)(CNC(=O)c1cc(OC3CC3)c3nn(C(F)F)cc3c1)C1CC1)nc2-n1ncc2c(F)cccc21` [Example 652], with under 200 nM; and `COc1nccc(-c2nc([C@@](O)(CNC(=O)c3cc(OC)c4nn(C5CC5)cc4c3)C3(F)CC3)cc3c2OC[C@]3(C)C(N)=O)c1Cl` [Example 653], with under 200 nM. The same measure, in the same setting: the result for `COc1nccc(-c2nc([C@@](O)(CNC(=O)c3cc(OC)c4nn(C5(F)CC5)cc4c3)C3(F)CC3)cc3c2OC[C@]3(C)C(N)=O)c1Cl` [Example 654] reads under 200 nM. Still for that read-out and setting: the result for `COc1nccc(-c2nc([C@@](O)(CNC(=O)c3cc(OC)c4nn(C(F)F)cc4c3)C3(F)CC3)cc3c2OC[C@]3(C)C(N)=O)c1Cl` [Example 655] reads under 200 nM; that for `COc1nccc(-c2nc([C@@](O)(CNC(=O)c3cc(OC)n4nc(C5CC5)cc4c3)C3(F)CC3)cc3c2OC[C@]3(C)C(N)=O)c1Cl` [Example 656], under 200 nM. As to `COc1nccc(-c2nc([C@@](O)(CNC(=O)c3cc(OC4CC4)c4nn(C5CC5)cc4c3)C3(F)CC3)cc3c2OC[C@]3(C)C(N)=O)c1Cl` [Example 657], the EC50 is under 200 nM. In the case of `COc1nccc(-c2nc([C@@](O)(CNC(=O)c3cc(OC4CC4)c4nn(C5(F)CC5)cc4c3)C3(F)CC3)cc3c2OC[C@]3(C)C(N)=O)c1Cl` [Example 658], the EC50 was under 200 nM. Consider `COc1nccc(-c2nc([C@@](O)(CNC(=O)c3cc(OC)c4nc(C)c(Cl)cc4c3)c3cccc(F)c3)cc3c2OC[C@]3(C)C(N)=O)c1Cl` [Example 659], for which the EC50 was under 200 nM. The same measure, in the same setting: then `C[C@]1(C(N)=O)COc2c1cc([C@@](O)(CNC(=O)c1cc(Cl)c3nn(C4CC4)cc3c1)C1CC1)nc2-c1cc(C(F)(F)F)ncc1F` [Example 660], with under 200 nM. `COc1cc(C(=O)NC[C@@](O)(c2ccccc2)c2cc3c(c(-c4ccnc(F)c4Cl)n2)OC[C@]3(C)C(N)=O)cc2cn(C(F)F)nc12` [Example 663] displayed an EC50 of under 200 nM. With `COc1cc(C(=O)NC[C@@](O)(c2ccccc2)c2cc3c(c(-c4ccnc(F)c4Cl)n2)OC[C@]3(C)C(N)=O)cn2cc(C3CC3)nc12` [Example 664], the EC50 is under 200 nM. On the same count and under the same terms, then `COc1cc(C(=O)NC[C@](O)(c2cc3c(c(-c4cc(C(F)(F)F)ncc4F)n2)OC[C@]3(C)C(N)=O)C2(F)CC2)cc2cn(C3CC3)nc12` [Example 665], with under 200 nM. For `COc1cc(C(=O)NC[C@](O)(c2cc3c(c(-c4cc(C(F)(F)F)ncc4F)n2)OC[C@]3(C)C(N)=O)C2(F)CC2)cc2cn(C3(F)CC3)nc12` [Example 666], the EC50 is under 200 nM.

In the case of `COc1cc(C(=O)NC[C@](O)(c2cc3c(c(-c4cc(C(F)(F)F)ncc4F)n2)OC[C@]3(C)C(N)=O)C2(F)CC2)cc2cn(C(F)F)nc12` [Example 667], the EC50 is under 200 nM. Regarding `COc1cc(C(=O)NC[C@](O)(c2cc3c(c(-c4cc(C(F)(F)F)ncc4F)n2)OC[C@]3(C)C(N)=O)C2(F)CC2)cn2cc(C3CC3)nc12` [Example 668], the 50% effective concentration (EC50) was under 200 nM.

For the molecule `COc1cc(C(=O)NC[C@](O)(c2cc3c(c(-c4cc(C(F)(F)F)ncc4F)n2)OC[C@]3(C)C(N)=O)C2(F)CC2)cc2cc(C3CC3)nn12` [Example 669], the EC50 is under 200 nM. The same measure, in the same setting: then `COc1cc(C(=O)NC[C@](O)(c2cc3c(c(-n4ccc5c(F)cccc54)n2)OC[C@]3(C)C(N)=O)C(F)(F)F)cc2sc(N)nc12` [Example 691], with under 200 nM; and `COc1cc(C(=O)NC[C@@](O)(c2ccccc2)c2cc3c(c(-c4ccnc(C)c4Cl)n2)OC[C@]3(C)C(N)=O)cc2cn(C3CC3)nc12` [Example 692], with under 200 nM. On the same count and under the same terms, then `COc1cc(C(=O)NC[C@@](O)(c2ccccc2)c2cc3c(c(-c4ccnc(C)c4Cl)n2)OC[C@]3(C)C(N)=O)cc2cn(C3(F)CC3)nc12` [Example 693], with under 200 nM; and `COc1cc(C(=O)NC[C@@](O)(c2ccccc2)c2cc3c(c(-c4ccnc(C)c4Cl)n2)OC[C@]3(C)C(N)=O)cc2cn(C(F)F)nc12` [Example 694], with under 200 nM; and `COc1cc(C(=O)NC[C@@](O)(c2ccccc2)c2cc3c(c(-c4ccnc(C)c4Cl)n2)OC[C@]3(C)C(N)=O)cc2oc(C3CC3)nc12` [Example 695], with under 200 nM.

In turn, `COc1nccc(-c2nc([C@@](O)(CNC(=O)c3cc(OC)c4nn(C5CC5)cc4c3)c3ccc(F)cc3)cc3c2OC[C@]3(C)C(N)=O)c1Cl` [Example 696] had an EC50 of under 200 nM. Take `COc1nccc(-c2nc([C@@](O)(CNC(=O)c3cc(OC)c4nn(C5(F)CC5)cc4c3)c3ccc(F)cc3)cc3c2OC[C@]3(C)C(N)=O)c1Cl` [Example 697]: the half-maximal effective concentration (EC50) is under 200 nM. Take `COc1nccc(-c2nc([C@@](O)(CNC(=O)c3cc(OC)c4nn(C(F)F)cc4c3)c3ccc(F)cc3)cc3c2OC[C@]3(C)C(N)=O)c1Cl` [Example 698]: the EC50 was under 200 nM. Same read-out and setting: then `COc1nccc(-c2nc([C@@](O)(CNC(=O)c3cc(OC)c4nc(C5CC5)oc4c3)c3ccc(F)cc3)cc3c2OC[C@]3(C)C(N)=O)c1Cl` [Example 699], with under 200 nM; and `COc1cc(C(=O)NC[C@@](O)(c2cccc(F)c2)c2cc3c(c(-c4ccnc(C)c4Cl)n2)OC[C@]3(C)C(N)=O)cc2cc(Cl)c(C)nc12` [Example 700], with under 200 nM.

The same experiment, now with this note: human metapneumovirus; hMPV A2 TN/94-49, LLC-MK2 cells with CP-100-356, Method 2.
`COc1nccc(-c2nc([C@@](O)(CNC(=O)c3cc(OC4CC4)n4nc(C5CC5)cc4c3)C(F)(F)F)cc3c2OC[C@]3(C)C(N)=O)c1Cl` [Example 607] displayed an EC50 of under 200 nM.
